{"source": "patent US20240287172A1", "about": "“PROTEIN BINDERS TO IRHOM2 EPITOPES” (SCIRHOM GMBH, priority 2019, published 2024)", "key": {"[1]": {"system": "PMA-induced release of endogenous TGFα from human PC3 prostate cancer cells", "assay": "ELISA-based TGFα release assay, PMA-induced, PC3 cells", "type": "cell-based", "conditions": "PC-3, PMA 25 ng/ml, 2 hours, recombinant murine antibodies and IgG at 1 μg/ml, Batimastat at 10 μM", "procedure": "In brief, on day 1, Nunc black MaxiSorp® 96-well plates (Thermo Fisher Scientific, USA) were coated overnight with 100 μl per well of goat anti-human TGFα capture antibody (provided as part of the DuoSet ELISA kit) at 0.4 μg/ml TBS at 4° C. On day 2, the capture antibody solution was removed and MaxiSorp® plates were blocked with 300 μl per well of TBS, 1% BSA at room temperature for 3 hours. Meanwhile, 100,000 PC3 (European Collection of Authenticated Cell Cultures, UK) cells in 80 μl of normal growth medium were seeded in each well of F-bottom 96-well cell culture plates (Coming, USA) and pre-incubated with 20 μl per well of OptiMEM medium supplemented with Batimastat (BB94, Abcam, UK) at 50 μM as positive control (for a final concentration of 10 μM in the resulting 100 μl sample volume), mouse IgG antibody (Thermo Fisher Scientific, USA) at 5 μg/ml as isotype control (for a final concentration of 1 μg/ml in the resulting 100 μl sample volume) or antibodies of the invention at 5 μg/ml (for a final concentration of 1 μg/ml in the resulting 100 μl sample volume) at 37° C., 5% CO2 for 30 minutes. In case of stimulation controls, 20 μl of OptiMEM medium without test articles were added. […] Using an infinite M1000 (Tecan Group, Switzerland) microplate reader, the fluorescence of each well was collected at an excitation wavelength of 435 nm and an emission wavelength of 555 nm."}, "[2]": {"system": "PMA-induced release of endogenous HB-EGF from human THP-1 monocytic cells", "assay": "ELISA-based HB-EGF release assay, PMA-induced, THP-1 cells", "type": "cell-based", "conditions": "PMA 25 ng/ml, 6 hours, murine (m) and chimeric (ch) antibodies and IgG at 3 μg/ml, Batimastat at 10 μM", "procedure": "In brief, on day 1, Nunc black MaxiSorp® 96-well plates (Thermo Fisher Scientific, USA) were coated for 7 hours with 100 μl per well of rat anti-human HB-EGF capture antibody (provided as part of the DuoSet ELISA kit) at 2 μg/ml TBS at room temperature. Capture antibody solution was removed and MaxiSorp® plates were blocked with 300 μl per well of TBS, 1% BSA at room temperature for 3 hours. […]\nFollowing another round of 4 times washing with 350 μl TBS-T (Carl Roth, Germany) per well on a 96-head plate washer (Tecan Group, Switzerland) and careful removal of all buffer traces after the fourth cycle, 100 μl AttoPhos substrate solution (Promega, USA) per well was added for incubation in the dark at room temperature for 1 hour. Using an infinite M1000 (Tecan Group, Switzerland) microplate reader, the fluorescence of each well was collected at an excitation wavelength of 435 nm and an emission wavelength of 555 nm."}}}
{"molecule": "CNC(=O)[C@H](Cc1ccccc1)NC(=O)[C@H](CC(C)C)[C@H](CSc1cccs1)C(=O)NO", "note": "[Batimastat]", "values": [{"measurement": "inhibition at 10 µM", "setting": "[1]", "value": 99.1, "unit": "%"}, {"measurement": "inhibition at 10 µM", "setting": "[2]", "value": 98.9, "unit": "%"}]}
